Data taken from patent US20230012936A1, “COMBINATION THERAPY USING GLUCAGON AND GLP-1 CO-AGONISTS FOR THE TREATMENT OF OBESITY” (MEDIMMUNE, LLC, priority 2019, published 2023).
Where two headings read alike, the source gives them in different places.

Tests used:
Format in all cases: in vivo, human
[1] = test system: overweight/obese subjects with Type 2 Diabetes Mellitus (T2DM); conditions: for Change from baseline in percentage of CGM glucose readings within the hyperglycemic range, mean: glucose >180 mg/dL; for Change from baseline in percentage of CGM glucose readings within the euglycemic range, mean: glucose ≥70 and ≤180 mg/dL; for 7-Day CGM mean glucose, mean / 7-Day CGM mean glucose, median: post-hoc
Description: A continuous glucose monitoring (CGM) device was used to measure interstitial glucose levels during the study. Subjects wore the CGM sensor continuously up until the time of a sensor change (every 7 to 14 days). If a subject was unable to tolerate wearing the CGM sensor for the entire duration of the study, the sensor was to be removed; but the subject should have remained in the study with or without continued CGM.
Subjects underwent continuous glucose monitoring (CGM) for a total of 28 days with sensor changes every 7 to 14 days. The changes in CGM glucose AUC0-24 h and mean glucose over 24 hours from baseline to the end of each dosing level on Days 7 (100 μg), 14 (200 μg), and 28 (300 μg) were measured. Variability in glucose levels was also assessed by measuring the changes in standard deviation (SD), coefficient of variation (CV), and mean amplitude of glucose excursion (MAGE) of CGM glucose values over 24 hours.
Changes from baseline in the percentages of 24-hour CGM glucose readings that fell within the euglycemic, hyperglycemic, hypoglycemic, and clinically significant hypoglycemic ranges were assessed at the end of each dosing level.
In addition, a post-hoc analysis of CGM mean glucose over 7 days was conducted to further evaluate the effect of cotadutide on glucose control at each dose level.

[2] = test system: overweight/obese subjects with Type 2 Diabetes Mellitus (T2DM); assay: Fasting plasma glucose (FPG), Phase 2a study
Method: The change in fasting plasma glucose (FPG) from baseline to Day 28 was assessed.

[3] = Pharmacokinetics of cotadutide in plasma (LC-MS/MS)
Method: The Cmax and the corresponding tmax were identified from the observed data. Log-linear regression of the terminal phase yielded the terminal rate constant (λz). The area under the plasma concentration time-curve during the dosing interval (AUCτ) was calculated by the log-linear trapezoidal rule. The area under the curve to infinity (AUC0-inf) was calculated as the sum of AUC(o-t) and Ct/z, where Ct is the observed plasma concentration obtained from the log-linear regression analysis of the last quantifiable time point and z is the terminal phase rate constant. Clearance (CL/F) was determined by dose/AUC0-inf, and the terminal half-life (t1/2) was calculated as 0.693/λz.

[4] = Body weight, Phase 2a study
Method: Body weight was measured during the screening period, at the start of the run—in period (Day −28), and prior to breakfast on Day 1 (predose) and Day 29. The subject should have taken off their shoes and remove bulky clothing. Calibrated scales were used.
The change and percent change in body weight from baseline (Day 1) to Day 29 (kg) were determined. The proportion of subjects achieving>5% body weight loss from baseline (Day 1) to Day 29 was also determined.

[5] = Safety: adverse events, laboratory values, vital signs, ECG
Method: (§1) Blood samples were collected to evaluate anti-drug antibody (ADA) response to cotadutide. Serum samples were evaluated for ADA using a validated immunoassay. Adverse events (AEs) and serious adverse events (SAEs) were collected from the time of informed consent throughout the treatment period and including the follow-up period. AEs and SAEs were graded by severity and relationship to investigational product and SAEs were assessed for relationship to protocol procedures.

[6] = Immunogenicity: anti-drug antibody (ADA) response to cotadutide
Method: as §1
Development of ADA and titres (in any subjects testing positive) were assessed to evaluate the immunogenicity profile of cotadutide titrated up to a dose of 300 μg. No subjects in the placebo group and 3 subjects (12.0%) in the cotadutide group tested positive for ADA at baseline. None of these subjects who tested positive at baseline were ADA positive post-baseline. One subject (4.2%) in the placebo group and 3 subjects (12.5%) in the cotadutide group were ADA positive post-baseline.

[7] = test system: overweight/obese subjects with Type 2 Diabetes Mellitus (T2DM); assay: 24-hour glucose urine excretion; conditions: Day 28
Method: Changes in 24-hour glucose urine excretion from baseline to Day 28 were assessed. At baseline, subjects in the cotadutide group had less urine glucose excretion compared with subjects in the placebo group (4552.85 vs 9107.06 mg/24 hr, respectively).

[8] = test system: overweight/obese subjects with Type 2 Diabetes Mellitus (T2DM); assay: Fasting free fatty acid (FFA) levels; conditions: Day 28 (300 μg); vs placebo
Method: The changes in fasting free fatty acid (FFA) from baseline to the end of each dose level were assessed. Fasting FFA changes from baseline to Day 7 (100 μg), Day 14 (200 μg), or Day 28 (300 μg) were similar between treatment groups (LS mean difference at Day 28: −0.04 mEq/L; p=0.5322).

SMILES: CCCCCCCCCCCCCCCC(=O)N[C@@H](CCC(=O)NCCCC[C@H](NC(=O)[C@H](CC(=O)O)NC(=O)[C@H](CO)NC(=O)[C@@H](NC(=O)[C@H](Cc1ccccc1)NC(=O)[C@@H](NC(=O)CNC(=O)[C@H](CCC(N)=O)NC(=O)[C@H](CO)NC(=O)[C@@H](N)Cc1c[nH]cn1)[C@@H](C)O)[C@@H](C)O)C(=O)N[C@@H](CO)C(=O)N[C@@H](CCC(=O)O)C(=O)N[C@@H](Cc1ccc(O)cc1)C(=O)N[C@@H](CC(C)C)C(=O)N[C@@H](CC(=O)O)C(=O)N[C@@H](CO)C(=O)N[C@@H](CCC(=O)O)C(=O)N[C@@H](CCCNC(=N)N)C(=O)N[C@@H](C)C(=O)N[C@@H](CCCNC(=N)N)C(=O)N[C@@H](CC(=O)O)C(=O)N[C@@H](Cc1ccccc1)C(=O)N[C@H](C(=O)N[C@@H](C)C(=O)N[C@@H](Cc1c[nH]c2ccccc12)C(=O)N[C@@H](CC(C)C)C(=O)N[C@@H](CCC(=O)O)C(=O)N[C@@H](C)C(=O)NCC(=O)NCC(=O)O)C(C)C)C(=O)O [Cotadutide]
- Change from baseline in CGM mean glucose over 24 hours, mean ([1]; Day 7 (100 μg)): -34.74 mg/dL
- Change from baseline in MAGE of CGM glucose, mean ([1]; Day 7 (100 μg)): -25.74 mg/dL
- Change in CGM glucose AUC0-24 h from baseline, mean ([1]; Day 7 (100 μg)): -832.66 mg·h/dL
- Change in CGM glucose AUC0-24 h from baseline, median ([1]; Day 7 (100 μg)): -962.95 mg·h/dL
- Change in SD over 24 hours in CGM glucose from baseline, mean ([1]; Day 7 (100 μg)): -7.21 mg/dL
- Change in SD over 24 hours in CGM glucose from baseline, median ([1]; Day 7 (100 μg)): -11.16 mg/dL
- Change from baseline in percentage of CGM glucose readings within the hyperglycemic range, mean ([1]; Day 7): −13.99%
- Change from baseline in percentage of CGM glucose readings within the euglycemic range, mean ([1]; Day 7): 7.12%
- Change from baseline in CGM mean glucose over 24 hours, mean ([1]; Day 14 (200 μg)): -28.34 mg/dL
- Change from baseline in MAGE of CGM glucose, mean ([1]; Day 14 (200 μg)): -26.59 mg/dL
- Change in CGM glucose AUC0-24 h from baseline, mean ([1]; Day 14 (200 μg)): -666.05 mg·h/dL
- Change in CGM glucose AUC0-24 h from baseline, median ([1]; Day 14 (200 μg)): -897.02 mg·h/dL
- Change in SD over 24 hours in CGM glucose from baseline, mean ([1]; Day 14 (200 μg)): -7.52 mg/dL
- Change in SD over 24 hours in CGM glucose from baseline, median ([1]; Day 14 (200 μg)): -8.36 mg/dL
- Change from baseline in percentage of CGM glucose readings within the hyperglycemic range, mean ([1]; Day 14): −9.81%
- Change from baseline in percentage of CGM glucose readings within the euglycemic range, mean ([1]; Day 14): 5.31%
- Change in CGM glucose AUC0-24 h from baseline, mean ([1]; Day 28 (LOCF) (300 μg)): -695.16 mg·h/dL
- Change in CGM glucose AUC0-24 h from baseline, median ([1]; Day 28 (LOCF) (300 μg)): -928.48 mg·h/dL
- Change in SD over 24 hours in CGM glucose from baseline, mean ([1]; Day 28 (LOCF) (300 μg)): -8.89 mg/dL
- Change in SD over 24 hours in CGM glucose from baseline, median ([1]; Day 28 (LOCF) (300 μg)): -9.57 mg/dL
- Change in CGM glucose AUC0-24 h from baseline, LS mean ([1]; Day 28 (LOCF), ANCOVA): -658.64 mg·h/dL
- Change in SD over 24 hours in CGM glucose from baseline, LS mean ([1]; Day 28 (LOCF), ANCOVA): -9.73 mg/dL
- Change in SD over 24 hours in CGM glucose from baseline, LS mean difference ([1]; Day 28 (LOCF), vs placebo): -8.45 mg/dL
- Change in CGM glucose AUC0-24 h from baseline, LS mean difference ([1]; Day 28 (LOCF), vs placebo, ANCOVA): -806.61 mg·h/dL
- CV of CGM glucose over 24 hours, change from baseline, LS mean difference ([1]; Day 28, vs placebo): −2.41%
- Change from baseline in CGM mean glucose over 24 hours, LS mean difference ([1]; Day 28, vs placebo): -34.06 mg/dL
- Change from baseline in MAGE of CGM glucose, LS mean difference ([1]; Day 28, vs placebo): -24.83 mg/dL
- Change from baseline in percentage of CGM glucose readings within the euglycemic range, LS mean difference ([1]; Day 28, vs placebo): 8.78%
- Change from baseline in percentage of CGM glucose readings within the hyperglycemic range, LS mean difference ([1]; Day 28, vs placebo): −12.83%
- 7-Day CGM mean glucose, mean ([1]; Days 1 to 7 (100 μg dose)): 116.82 mg/dL
- 7-Day CGM mean glucose, median ([1]; Days 1 to 7 (100 μg dose)): 111.40 mg/dL
- 7-Day CGM mean glucose, mean ([1]; Days 8 to 14 (200 μg dose)): 118.78 mg/dL
- 7-Day CGM mean glucose, median ([1]; Days 8 to 14 (200 μg dose)): 113.48 mg/dL
- 7-Day CGM mean glucose, mean ([1]; Days 15 to 21 (300 μg dose)): 120.94 mg/dL
- 7-Day CGM mean glucose, median ([1]; Days 15 to 21 (300 μg dose)): 106.17 mg/dL
- 7-Day CGM mean glucose, mean ([1]; Days 22 to 28 (300 μg dose)): 115.61 mg/dL
- 7-Day CGM mean glucose, median ([1]; Days 22 to 28 (300 μg dose)): 108.78 mg/dL
- Change from baseline in percentage of CGM glucose readings within the hypoglycemic range, LS mean difference ([1]; in vivo): 3.35%
- Fasting plasma glucose, Day 28 (LOCF), mean ([2]; Day 28 (LOCF), ITT): 115.33 mg/dL
- Fasting plasma glucose, Day 28 (LOCF), median ([2]; Day 28 (LOCF), ITT): 106.32 mg/dL
- Fasting plasma glucose, change from baseline (LOCF), mean ([2]; baseline to Day 28): -34.24 mg/dL
- Fasting plasma glucose, change from baseline (LOCF), median ([2]; baseline to Day 28): -43.25 mg/dL
- Fasting plasma glucose, change from baseline (LOCF), LS mean ([2]; baseline to Day 28, ANCOVA): -34.15 mg/dL
- Fasting plasma glucose, change from baseline (LOCF), LS mean difference ([2]; baseline to Day 28, vs placebo): -37.73 mg/dL
- Effect of dapagliflozin on cotadutide clinical PK ([3]; cotadutide 100 to 300 μg/day): not affected by the presence of dapagliflozin
- half-life ([3]; human, plasma, subcutaneous, 300 ug, across doses 100, 200 and 300 μg, read-out: Cotadutide half-life t1/2): 8.8 to 9.1 h
- Body weight, Day 29 change from baseline, mean ([4]; baseline (Day 1) to Day 29): -3.06 kg
- Body weight, Day 29 change from baseline, median ([4]; baseline (Day 1) to Day 29): -2.85 kg
- Body weight, Day 29 percent change from baseline, mean ([4]; baseline (Day 1) to Day 29): −3.30%
- Body weight, Day 29 percent change from baseline, median ([4]; baseline (Day 1) to Day 29): −3.14%
- Proportion of subjects achieving >5% body weight loss ([4]; baseline to Day 29, 3 subjects): 12.5%
- Body weight, Day 29 change from baseline, LS mean ([4]; baseline to Day 29, ANCOVA): -3.16 kg
- Body weight, Day 29 percent change from baseline, LS mean ([4]; baseline to Day 29, ANCOVA): −3.33%
- Body weight, Day 29 change from baseline, LS mean difference ([4]; baseline to Day 29, vs placebo): -2.13 kg
- Body weight, Day 29 percent change from baseline, LS mean difference ([4]; baseline to Day 29, vs placebo): −2.26%
- Incidence of treatment-emergent adverse events (TEAEs) ([5]; As-treated, 28 days): 52.0%
- Subjects with a TEAE that led to discontinuation of investigational product ([5]; abdominal pain and vomiting): Two
- Incidence of investigational product-related TEAEs ([5]; as judged by the investigator): 40.0%
- Heart rate ([5]; compared with the placebo group): increased heart rate was observed
- Blood pressure (BP) ([5]; in vivo): No meaningful changes
- Hematology, serum chemistry, or urinalysis laboratory values ([5]; in vivo): no clinically meaningful trends
- Severity of TEAEs ([5]; in vivo): mild (Grade 1) or moderate (Grade 2)
- Electrocardiogram (ECG) parameters ([5]; with the exception of heart rate): no clinically meaningful trends
- Subjects ADA positive post-baseline ([6]; 3 subjects): 12.5%
- Subjects ADA positive at Day 29 ([6]; Day 29, 1 subject): 4.2%
- Subjects ADA positive at the End of Study ([6]; End of Study, 2 subjects): 8.3%
- Treatment boosted ADA (baseline titre boosted 4-fold or higher) ([6]; during drug administration): No subjects had a treatment boosted ADA
- 24-hour glucose urine excretion, change from baseline, LS mean [7]: −643.46 mg/24h
- 24-hour glucose urine excretion, change from baseline, LS mean difference ([7]; vs placebo): 921.26 mg/24h
- Fasting FFA change from baseline, LS mean difference [8]: −0.04 mEq/L
